According to patent publication EP4603105A1, “PHARMACEUTICAL COMPOSITION CONTAINING CYCLIC COMPOUND HAVING SELECTIVE KRAS INHIBITORY EFFECT AGAINST HRAS AND NRAS” (CHUGAI SEIYAKU KABUSHIKI KAISHA, priority 2022, dated 2024):
Where two headings read alike, the source gives them in different places.

How the values were obtained:
[1] = target: GDP-bound KRAS wild-type protein (Homo sapiens, UniProt P01116); assay: Binding to KRAS by surface plasmon resonance (SPR), dissociation constant KD
Summary of the method: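 GDP-loaded biotinylated Avi-tag RAS proteins (E. coli-expressed) captured on a Biotin CAPture chip at ~100–300 RU; single-cycle kinetics at 30°C, 100 µL/min, 75 s injections of rising compound concentrations. HBS pH 7.4 running buffer with 1 mM DTT, 10 mM MgCl2, 10 µM GDP, 4% DMSO. KD from 1:1 binding fit.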

[2] = target: GDP-bound NRAS wild-type protein (Homo sapiens, UniProt P01111); assay: Binding to NRAS by surface plasmon resonance (SPR), KD and KD ratio to KRAS
GDP-bound NRAS wild-type protein, sequence (P01111 whole entry): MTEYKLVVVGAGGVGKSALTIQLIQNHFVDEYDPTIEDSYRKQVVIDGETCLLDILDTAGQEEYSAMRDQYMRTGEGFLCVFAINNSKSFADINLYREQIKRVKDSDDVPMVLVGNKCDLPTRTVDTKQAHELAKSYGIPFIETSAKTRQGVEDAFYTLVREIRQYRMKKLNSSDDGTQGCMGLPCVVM
Summary of the method: (§1)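 Measured at 30°C: SPR with GDP-loaded, E. coli-expressed biotin-Avi RAS captured (~100–300 RU), ascending 75 s compound injections, HBS pH 7.4 with GDP, MgCl2, 4% DMSO. KD from 1:1 fit.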

HRAS wild-type protein = HRAS wild-type protein (Homo sapiens, UniProt P01112); assay: Binding to HRAS by surface plasmon resonance (SPR), KD and KD ratio to KRAS
HRAS wild-type protein, sequence (P01112 whole entry): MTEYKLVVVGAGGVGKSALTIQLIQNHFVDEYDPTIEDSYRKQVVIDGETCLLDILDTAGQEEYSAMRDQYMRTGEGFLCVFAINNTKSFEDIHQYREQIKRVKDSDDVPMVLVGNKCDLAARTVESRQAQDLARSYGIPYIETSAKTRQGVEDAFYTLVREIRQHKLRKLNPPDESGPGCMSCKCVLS
Summary of the method: as §1

[3] = tested on: human lung cancer strain NCI-H441; assay: NCI-H441 cell proliferation inhibitory activity (CellTiter-Glo, 4 days); format: cell-based; conditions: read-out: NCl-H441 IC50
Summary of the method: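 Signal came from […] measured per well once the reagent was added. Beforehand, cells were cultured at 37°C and 5% carbon dioxide on a compound series serially diluted in dimethyl sulfoxide.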

[4] = Single Cycle Kinetics, 1:1 binding model
[5] = ratio of KD with respect to GDP-bound NRAS wild-type protein to KD with respect to KRAS
[6] = ratio of KD with respect to HRAS wild-type protein to KD with respect to KRAS
[7] = 50% proliferation inhibitory concentration, four days
[8] = ratio of KD for GDP-bound NRAS wild-type protein to KD for KRAS
[9] = ratio of KD for HRAS wild-type protein to KD for KRAS

GDP-bound KRAS wild-type protein, sequence (P01116 1-188 isoform P01116-2): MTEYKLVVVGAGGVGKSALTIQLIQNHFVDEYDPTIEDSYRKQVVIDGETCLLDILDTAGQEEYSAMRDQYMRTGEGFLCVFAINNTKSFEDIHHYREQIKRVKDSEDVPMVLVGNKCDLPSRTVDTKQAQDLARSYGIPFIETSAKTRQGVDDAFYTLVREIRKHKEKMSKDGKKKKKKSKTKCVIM

| Kd [1, 4] [nM] | IC50 [3, 7] [nM] | Kd ([1]; Single Cycle Kinetics) [nM] | IC50 ([3]; NCI-H441 cells, 4 days) [nM] | Kd ([1]; 1:1 binding model) [nM] | Compound | NRAS /KRAS [2, 5] | HRAS /KRAS (HRAS wild-type protein; [6]) | NRAS /KRAS [2, 8] | HRAS /KRAS (HRAS wild-type protein; [9]) |
| --- | --- | --- | --- | --- | --- | --- | --- | --- | --- |
|  |  | 0.85 | 3.7 |  | CCC[C@H]1C(=O)N[C@@H]([C@@H](C)CC)C(=O)N(C)CC(=O)N(C)[C@H]2C/C=C\CCN(C2=O)[C@@H](Cc2ccc(C(F)(F)F)cc2)C(=O)N(C)CC(=O)N[C@@H](CCc2ccc(C(F)(F)F)c(OC)c2)C(=O)N2CC3(CC3)C[C@H]2C(=O)N(C)C2(CCC2)C(=O)N(C)[C@@H]([C@@H](C)CC)C(=O)N(C)[C@H](C(=O)N(C)C)CC(=O)N1C [PP3291] |  |  | A (a compound having 10 or more and less than 20 is denoted as A) | B (a compound having 3 or more and less than 10 is denoted as B) |
|  |  | 0.36 | 13 |  | CCCO[C@@H]1C[C@H]2C(=O)NC3(CC(C)(C)C3)C(=O)N(C)[C@@H](C3CCCC3)C(=O)N(C)[C@H](C(=O)N(C)CC)CC(=O)N(C)[C@@H](COCC)C(=O)N[C@@H]([C@@H](C)CC)C(=O)N3C[C@@H](F)C[C@H]3C(=O)N(C)[C@H]3C/C=C\CCN(C3=O)[C@@H](Cc3ccc(C(F)(F)F)cc3)C(=O)N(C)CC(=O)N[C@@H](CCc3ccc(C(F)(F)F)c(OC)c3)C(=O)N2C1 [PP3417] |  |  | A (a compound having 10 or more and less than 20 is denoted as A) | A (a compound having 10 or more and less than 20 is denoted as A) |
|  |  | 0.081 | 9 |  | CCC[C@H]1C(=O)N[C@@H]([C@@H](C)CC)C(=O)N(C)CC(=O)N(C)[C@H]2C/C=C\CCN(C2=O)[C@@H](Cc2ccc(C)cc2)C(=O)N(C)CC(=O)N[C@@H](CCc2ccc(C(F)(F)F)c(Cl)c2)C(=O)N2CC3(CC3)C[C@H]2C(=O)N(C)C2(CCC2)C(=O)N(C)[C@@H]([C@@H](C)CC)C(=O)N(C)[C@H](C(=O)N(C)C)CC(=O)N1C [PP3302] |  |  | A (a compound having 10 or more and less than 20 is denoted as A) | A (a compound having 10 or more and less than 20 is denoted as A) |
|  |  | 0.24 | 6.9 |  | CCC[C@H]1C(=O)N[C@@H]([C@@H](C)CC)C(=O)N2CCC[C@H]2C(=O)N(C)[C@H]2C/C(F)=C\CCN(C2=O)[C@@H](Cc2ccc(C)cc2)C(=O)N(C)CC(=O)N[C@@H](CCc2ccc(C(F)(F)F)c(OC)c2)C(=O)N2C[C@H](OCC)C[C@H]2C(=O)N(C)C2(CCC2)C(=O)N(C)[C@@H](C2CCCC2)C(=O)N(C)[C@H](C(=O)N(C)C)CC(=O)N1C [PP3524] |  |  | B (a compound having 3 or more and less than 10 is denoted as B) | B (a compound having 3 or more and less than 10 is denoted as B) |
|  |  | 0.72 | 37.9 |  | C#CCN1CC(=O)N(C)[C@H]2C/C=C\CCN(C2=O)[C@@H](Cc2ccc(C(F)F)cc2)C(=O)N(C)CC(=O)N[C@@H](CCc2ccc(C(F)(F)F)cc2Cl)C(=O)N2C[C@H](OC(C)C)C[C@H]2C(=O)N(C)C2(CCC2)C(=O)N(C)[C@@H](C(CC)CC)C(=O)N(C)[C@H](C(=O)N(C)C)CC(=O)N(C)[C@@H](CC(C)C)C(=O)N[C@@H]([C@@H](C)CC)C1=O [PP3495] |  |  | AA (a compound having 20 or more is denoted as AA) | A (a compound having 10 or more and less than 20 is denoted as A) |
|  |  | 0.3 | 12.4 |  | CCO[C@@H]1C[C@H]2C(=O)NC3(CC(C)(C)C3)C(=O)N(C)[C@@H](C3CCCC3)C(=O)N(C)[C@H](C(=O)N(C)CC)CC(=O)N(C)[C@@H]([C@H](C)OC)C(=O)N[C@@H]([C@@H](C)CC)C(=O)N(C)CC(=O)N(C)[C@H]3C/C=C\CCN(C3=O)[C@@H](Cc3ccc(C)cc3)C(=O)N(C)CC(=O)N[C@@H](CCc3cc(F)c(C(F)(F)F)c(F)c3)C(=O)N2C1 [PP3226] |  |  | A (a compound having 10 or more and less than 20 is denoted as A) | B (a compound having 3 or more and less than 10 is denoted as B) |
|  |  | 0.73 | 23.8 |  | CCCO[C@@H]1C[C@H]2C(=O)NC3(CC(C)(C)C3)C(=O)N(C)[C@@H](C3CCCC3)C(=O)N(C)[C@H](C(=O)N(C)CC)CC(=O)N(C)[C@@H](COCC)C(=O)N[C@@H]([C@@H](C)CC)C(=O)N3CCC[C@H]3C(=O)N(C)[C@H]3C/C=C\CCN(C3=O)[C@@H](Cc3ccc(C(F)(F)F)cc3)C(=O)N(C)CC(=O)N[C@@H](CCc3ccc(C(F)(F)F)c(OC)c3)C(=O)N2C1 [PP3413] |  |  | AA (a compound having 20 or more is denoted as AA) | A (a compound having 10 or more and less than 20 is denoted as A) |
|  |  | 0.68 | 109 |  | CCO[C@@H]1C[C@H]2C(=O)NC3(CC(C)(C)C3)C(=O)N(C)[C@@H](C3CCCC3)C(=O)N(C)[C@H](C(=O)N(C)C)CC(=O)N(C)[C@@H]([C@@H](C)OC)C(=O)N[C@@H]([C@@H](C)CC)C(=O)N3CCC[C@H]3C(=O)N(C)[C@H]3C/C=C\CCN(C3=O)[C@@H](Cc3ccc(C)cc3)C(=O)N(C)CC(=O)N[C@@H](CCc3ccc(C(F)(F)F)c(Cl)c3)C(=O)N2C1 [PP3215] |  |  | A (a compound having 10 or more and less than 20 is denoted as A) | A (a compound having 10 or more and less than 20 is denoted as A) |

Further lines, the molecule ahead of its results:

| Compound | Kd [1, 4] [nM] | IC50 [3, 7] [nM] | Kd ([1]; Single Cycle Kinetics) [nM] | IC50 ([3]; NCI-H441 cells, 4 days) [nM] | Kd ([1]; 1:1 binding model) [nM] | NRAS /KRAS [2, 5] | HRAS /KRAS (HRAS wild-type protein; [6]) | NRAS /KRAS [2, 8] | HRAS /KRAS (HRAS wild-type protein; [9]) |
| --- | --- | --- | --- | --- | --- | --- | --- | --- | --- |
| CCO[C@@H]1C[C@H]2C(=O)NC3(CCC3)C(=O)N(C)[C@@H](C3CCCC3)C(=O)N(C)[C@H](C(=O)N3CCOCC3)CC(=O)N(C)[C@@H](CC(C)C)C(=O)N[C@@H]([C@@H](C)CC)C(=O)N3CC[C@H]3C(=O)N(C)[C@H]3C[C@@H](C)[C@@H](C)CN(C3=O)[C@@H](Cc3ccc(C(F)(F)F)cc3)C(=O)N(C)CC(=O)N[C@@H](CCc3cc(F)c(C(F)(F)F)c(F)c3)C(=O)N2C1 [PP1355] | 0.16 | 10.2 |  |  |  | A (a compound having 10 or more and less than 20 is denoted as A) | B (a compound having 3 or more and less than 10 is denoted as B) |  |  |
| CCO[C@@H]1C[C@H]2C(=O)NC3(CCC3)C(=O)N(C)[C@@H](C3CCCC3)C(=O)N(C)[C@H](C(=O)N3CCCC3)CC(=O)N(C)[C@@H](CC)C(=O)N[C@@H]([C@@H](C)CC)C(=O)N(C)CC(=O)N(C)[C@H]3C/C=C\CCN(C3=O)[C@@H](CC3CCC(F)(F)CC3)C(=O)N(C)CC(=O)N[C@@H](CCc3cc(F)c(C(F)(F)F)c(F)c3)C(=O)N2C1 [PP1442] | 0.13 | 48.3 |  |  |  | A (a compound having 10 or more and less than 20 is denoted as A) | A (a compound having 10 or more and less than 20 is denoted as A) |  |  |
| CCOC[C@H]1C(=O)N[C@@H]([C@@H](C)CC)C(=O)N(C)CC(=O)N(C)[C@H]2C/C=C\CCN(C2=O)[C@@H](Cc2ccc(C)cc2)C(=O)N(C)CC(=O)N[C@@H](CCc2ccc(C(F)(F)F)c(OC)c2)C(=O)N2C[C@H](C)C[C@H]2C(=O)NC2(CC(C)(C)C2)C(=O)N(C)[C@@H](C2CCCC2)C(=O)N(C)[C@H](C(=O)N(C)C)CC(=O)N1C [PP2393] |  |  |  | 28.2 | 0.12 |  |  | A (a compound having 10 or more and less than 20 is denoted as A) | A (a compound having 10 or more and less than 20 is denoted as A) |
| CCC[C@H]1C(=O)N[C@@H]([C@@H](C)CC)C(=O)N2CCC[C@H]2C(=O)N(C)[C@H]2C/C=C\CCN(C2=O)[C@@H](Cc2ccc(C(F)F)cc2)C(=O)N(C)CC(=O)N[C@@H](CCc2ccc(Cl)c(Cl)c2)C(=O)N2C[C@H](OCC)C[C@H]2C(=O)NC2(CC(C)(C)C2)C(=O)N(C)[C@@H](C(CC)CC)C(=O)N(C)[C@H](C(=O)N(C)C)CC(=O)N1C [PP2637] |  |  |  | 61.4 | 1 |  |  | AA (a compound having 20 or more is denoted as AA) | A (a compound having 10 or more and less than 20 is denoted as A) |
| CCO[C@@H]1C[C@H]2C(=O)NC3(CCC3)C(=O)N(C)[C@@H](C(CC)CC)C(=O)N(C)[C@H](C(=O)N3CCCC3)CC(=O)N(C)[C@@H](C)C(=O)N[C@@H]([C@@H](C)CC)C(=O)N(C)CC(=O)N(C)[C@H]3C/C=C\CCN(C3=O)[C@@H](CC3CCCCC3)C(=O)N(C)CC(=O)N[C@@H](CCc3cc(F)c(C(F)(F)F)c(F)c3)C(=O)N2C1 [PP1434] | 0.69 | 112 |  |  |  | A (a compound having 10 or more and less than 20 is denoted as A) | A (a compound having 10 or more and less than 20 is denoted as A) |  |  |
| CCCOC[C@H]1C(=O)N[C@@H]([C@@H](C)OCC)C(=O)N2CCC[C@H]2C(=O)N(C)[C@H]2C/C=C\CCN(C2=O)[C@@H](Cc2ccc(C)cc2)C(=O)N(C)CC(=O)N[C@@H](CCc2cc(F)c(C(F)(F)F)c(F)c2)C(=O)N2C[C@H](OCC)C[C@H]2C(=O)NC2(CC(C)(C)C2)C(=O)N(C)[C@@H](C2CCCC2)C(=O)N(C)[C@H](C(=O)N(C)CC)CC(=O)N1C [PP2432] |  |  |  | 138 | 1.4 |  |  | A (a compound having 10 or more and less than 20 is denoted as A) | A (a compound having 10 or more and less than 20 is denoted as A) |
| CCOC[C@H]1C(=O)N[C@@H]([C@@H](C)CC)C(=O)N(C)CC(=O)N(C)[C@H]2C/C=C\CCN(C2=O)[C@@H](Cc2ccc(C)cc2)C(=O)N(C)CC(=O)N[C@@H](CCc2ccc(C(F)(F)F)c(OC)c2)C(=O)N2C[C@@H](C)C[C@H]2C(=O)NC2(CC(C)(C)C2)C(=O)N(C)[C@@H](C2CCCC2)C(=O)N(C)[C@H](C(=O)N(CC)CC)CC(=O)N1C [PP2405] |  |  |  | 8.6 | 0.31 |  |  | A (a compound having 10 or more and less than 20 is denoted as A) | A (a compound having 10 or more and less than 20 is denoted as A) |
